Test results as given in PMC10515640, “Structure-Based Optimization of Covalent, Small-Molecule Stabilizers of the 14-3-3σ/ERα Protein–Protein Interaction from Nonselective Fragments” (Journal of the American Chemical Society, 2023).

Key:
[1] = target: T1, 14-3-3σ (Homo sapiens, UniProt P31947); assay: Mass spectrometry dose response, compound binding to 14-3-3σ in the absence of peptide (apo); settings: 100 nM compound, 100 nM 14-3-3σ
T1 construct: The 14-3-3 σ isoform (full-length for mass spectrometry and fluorescence anisotropy assays, ΔC for crystallography); made in house; host or cells: E. coli Rosetta 2(DE3)pLysS, pPROEX HTb vector
T1 sequence (P31947 1-248): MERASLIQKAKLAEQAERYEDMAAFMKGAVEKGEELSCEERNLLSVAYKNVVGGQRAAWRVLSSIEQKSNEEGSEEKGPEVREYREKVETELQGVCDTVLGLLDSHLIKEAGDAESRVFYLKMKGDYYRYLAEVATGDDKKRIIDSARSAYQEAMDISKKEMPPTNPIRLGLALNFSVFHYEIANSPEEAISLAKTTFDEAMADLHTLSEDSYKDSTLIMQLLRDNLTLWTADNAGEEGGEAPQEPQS
How it was run: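 Covalent binding of compounds to Cys38 of full-length wild type human 14-3-3σ (100 nM) was measured by LC-MS without peptide present. Compounds from 50 mM DMSO stocks were serially diluted 3-fold and 1000 nl transferred to plates in TRIS buffer (10 mM, pH 8.0), 50 μl per well. Samples were desalted on a BEH-C4 column and analysed on a Xevo G2-XS Q-Tof at several time points.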

[2] = target: T2, 14-3-3σ/ERα (Homo sapiens, UniProt P03372+P31947); assay: Mass spectrometry dose response, compound binding to 14-3-3σ in the presence of ERα phosphopeptide; settings: 100 nM compound, 100 nM 14-3-3σ, ERα-peptide 2 µM
T2 construct: The 14-3-3 σ isoform (full-length for mass spectrometry and fluorescence anisotropy assays, ΔC for crystallography); made in house; host or cells: E. coli Rosetta 2(DE3)pLysS, pPROEX HTb vector
How it was run: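 Covalent labeling of Cys38 on 14-3-3σ was tracked by LC-MS on a Waters Acquity UPLC/Xevo G2-XS Q-Tof, with samples desalted on a Protein BEH-C4 column. Full-length wild type 14-3-3σ (100 nM) plus ERα phosphopeptide was mixed with compound in 10 mM TRIS, pH 8.0, at 50 μl per well. Percent bound was measured at several time points.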

[3] = target: T3, 14-3-3σ/C-RAF (Homo sapiens, UniProt P31947); assay: Mass spectrometry dose response, compound binding to 14-3-3σ in the presence of C-RAF phosphopeptide; settings: 100 nM compound, 100 nM 14-3-3σ, C-RAF peptide 18 µM
T3 construct: The 14-3-3 σ isoform (full-length for mass spectrometry and fluorescence anisotropy assays, ΔC for crystallography); made in house; host or cells: E. coli Rosetta 2(DE3)pLysS, pPROEX HTb vector
T3 sequence (P31947 1-248): T1 sequence (P31947 1-248)
How it was run: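 Covalent binding of compounds to the native Cys38 of 14-3-3σ was monitored by LC-MS on a Waters Acquity UPLC/Xevo G2-XS Q-Tof, with samples desalted on a BEH-C4 column. Full-length wild type 14-3-3σ (100 nM) with C-RAF peptide in TRIS buffer (10 mM, pH 8.0) was incubated with compound dose series at room temperature.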

[4] = target: T2, 14-3-3σ/ERα; assay: Fluorescence anisotropy compound titration, FAM-labeled ERα peptide; type: binding; settings: 10 nM ERα-FAM labeled peptide, 1 µM 14-3-3σ, overnight incubation (24 h); read-out: EC50 value ERα (FA compound titration)
How it was run: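 Fluorescence anisotropy compound titration measuring stabilization of the 14-3-3σ/ERα interaction: compounds were titrated in a 2-fold dilution series (starting at 500 or 1000 µM) into a mix of 10 nM fluorescein-labeled ERα peptide and 1 µM 14-3-3σ (about EC25 of the complex) in HEPES buffer with 1% DMSO, read after overnight incubation at room temperature; EC50 from 4PL fitting.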

[5] = target: T3, 14-3-3σ/C-RAF; assay: Fluorescence anisotropy compound titration, FAM-labeled C-RAF peptide; type: binding; settings: 10 nM C-RAF-FAM labeled peptide, 5 µM 14-3-3σ, overnight incubation; read-out: EC50 value C-RAF (FA compound titration)
How it was run: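 A fluorescence anisotropy compound titration measured how compounds stabilize binding of 14-3-3σ to a fluorescein-labeled C-RAF peptide. Compounds were diluted 2-fold, from 500 or 1000 µM, into 10 nM labeled peptide with 5 µM 14-3-3σ, roughly its EC25, in HEPES buffer with 1% DMSO. Plates were read after overnight incubation at room temperature. EC50 values came from 4PL fits over three independent experiments.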

[6] = target: T2, 14-3-3σ/ERα; assay: Fluorescence anisotropy protein titration, FAM-labeled ERα peptide; type: binding; settings: 10 nM FAM-ERα peptide; for X Fold stabilization (100 µM compound) of 14-3-3σ/ERα: versus DMSO reference; for Kd: 100 µM compound, overnight incubation
Procedure: To evaluate compound-mediated stabilization of the 14-3-3σ/ERα complex directly, FA protein titrations were performed at a saturating concentration of compound. FA protein titrations allowed the quantification of the cooperative effect by comparing the apparent dissociation constants (appKD) of the binary and ternary complexes. 14-3-3σ was titrated into 10 nM FAM-labeled ERα peptide in the presence of DMSO or 100 μM of the compounds (Table S4). […]
diluted in buffer (10 mM HEPES, pH 7.5, 150 mM NaCl, 0.1% Tween20, 1 mg/mL Bovine Serum Albumin (BSA; Sigma-Aldrich). Final DMSO in the assay was always 1%. […]
Protein titrations were made by titrating 14-3-3σ in a 2-fold dilution series (starting at 300 µM) to a mix of fluorescein-labeled peptide (10 nM) and DMSO or compound (100 µM). Fluorescence anisotropy measurements were performed after overnight incubation at room temperature. […]
Wells containing only FAM-peptide were used to set as G-factor at 35 mP. Data reported are at endpoint. EC50 and apparent Kd values were obtained from fitting the data with a four-parameter logistic model (4PL) in GraphPad Prism 7 for Windows. Data was obtained and averaged based on either three (compound titrations) or two (protein titrations) independent experiments.

Structure (SMILES) | Percentage (%) bound of compound to 14-3-3σ, APO 1h [1] | Percentage (%) bound of compound to 14-3-3σ, APO 8h [1] | Percentage (%) bound of compound to 14-3-3σ, APO 16h [1] | Percentage (%) bound of compound to 14-3-3σ, APO 24h [1] | Percentage (%) bound of compound to 14-3-3σ, ERα 1h [2] | Percentage (%) bound of compound to 14-3-3σ, ERα 8h [2] | Percentage (%) bound of compound to 14-3-3σ, ERα 16h [2] | Percentage (%) bound of compound to 14-3-3σ, ERα 24h [2] | Percentage (%) bound of compound to 14-3-3σ, CRAF 1h [3] | Percentage (%) bound of compound to 14-3-3σ, CRAF 8h [3] | Percentage (%) bound of compound to 14-3-3σ, CRAF 24h ([3]; 24h) | Percentage (%) bound of compound to 14-3-3σ, CRAF 24h ([3]; head prints 24h) | EC50 [4] | EC50 [5] | X Fold stabilization (100 µM compound) of 14-3-3σ/ERα [6] | Kd [6]
O=C(CCl)N1CCC2(CC1)CCN(C(=O)C1(Nc3ccc(Cl)cc3)CCOCC1)CC2 [compound 170] | 1.0% | 1.8% | 3.4% | 5.3% | 38.2% | 68.1% | 86.2% | 94.0% | 3.6% | 8.0% | 19.7% | 12.1% | 8 ± 1 µM | 58 ± 11 µM | 12 fold | 0.119 µM
O=C(CCl)NCC1CCN(C(=O)C2(Nc3ccc(Cl)cc3)CCOCC2)CC1 [compound 127] | 0% | 0% | 1.0% | 2.0% | 9.5% | 19.6% | 56.8% | 85.2% | 1.1% | 2.9% | 10.5% | 7.4% | 2 ± 0.3 µM | > 150 µM | 19 fold | 0.077 µM
CC1CC(Nc2ccc(Cl)cc2)(C(=O)NCC2CC3(CCN(C(=O)CCl)CC3)C2)CC(C)O1 (stereo not drawn) [compound 180] | 1.4% | 2.9% | 7.3% | 11.5% | 40.8% | 50.1% | 84.4% | 96.1% | 0% | 2.5% | 8.5% | 4.5% | 10 ± 2 µM | > 150 µM | 7 fold | 0.192 µM
O=C(CCl)NCCCC1CCN(C(=O)C2(Nc3ccc(Cl)cc3)CCOCC2)CC1 [compound 149] | 0.6% | 0.8% | 14.2% | 17.7% | 7.6% | 16.2% | 37.7% | 86.7% | 0% | 1.0% | 23.3% | 3.4% | 4 ± 0.4 µM | – | 55 fold | 0.027 µM
CC1CC(Nc2ccc(Cl)cc2)(C(=O)N2CCC(CNC(=O)CCl)CC2)CC(C)O1 (stereo not drawn) [compound 178] | 0.9% | 1.7% | 2.4% | 2.5% | 24.6% | 36.8% | 77.5% | 96.4% | 0% | 0.5% | 5.7% | 2.0% | 12 ± 1 µM | 86 ± 11 µM | 15 fold | 0.094 µM
CC(C)(Nc1ccc(Cl)cc1)C(=O)N1CCC(CNC(=O)CCl)CC1 [compound 84] | 0% | 0% | 1.0% | 5.8% | 0.9% | 2.8% | 7.5% | 19.0% | 0.8% | 1.0% | 3.3% | 2.9% | 55 ± 2 µM | > 150 µM | – | –
C=CC(C)(C)OCC1OC(OC2C3=C(C(C)COC(C)=O)CC(O)C3(C)C=C3C(COC)CCC3C(C)C2O)C(O)C(OC(C)=O)C1O (stereo not drawn) [FC-A, Fusicoccin-A, reference compound] | – | – | – | – | – | – | – | – | – | – | – | – | – | – | 166 fold | –
O=C(CCl)NCC1CCN(C(=O)C2(Nc3ccc(Cl)cc3)CCCCC2)CC1 [compound 123] | 0.0% | 1.0% | 1.0% | 1.9% | 3.4% | 8.3% | 20.8% | 63.9% | 1.0% | 1.9% | 3.5% | 1.9% | 8 ± 1 µM | 59 ± 4 µM | – | –
